These results are taken from ChEMBL document CHEMBL1131540 (Bioorg Med Chem Lett, 1998).

The target in assay [1] is T1, Mu-type opioid receptor (Cavia porcellus, UniProt P97266). Kind of assay: Compound was tested for binding affinity towards mu opioid receptor in guinea pig brain homogenates using [3H]CTOP as radioligand. Format: tissue-based.
Assay [2] has as its target Opioid receptors; mu & delta (Homo sapiens) (UniProt P41143+P35372). As to the kind of experiment: Selectivity ratio of binding affinity towards delta opioid receptor to that of mu opioid receptor. Format: protein assay.
Assay [3] deals with Delta-type opioid receptor (Mus musculus, UniProt P32300). As to the kind of experiment: Inhibitory concentration required against biological activity of Opioid receptor delta 1 from mouse vas deferens (MVD).
Sequence of Delta-type opioid receptor (P32300 whole entry): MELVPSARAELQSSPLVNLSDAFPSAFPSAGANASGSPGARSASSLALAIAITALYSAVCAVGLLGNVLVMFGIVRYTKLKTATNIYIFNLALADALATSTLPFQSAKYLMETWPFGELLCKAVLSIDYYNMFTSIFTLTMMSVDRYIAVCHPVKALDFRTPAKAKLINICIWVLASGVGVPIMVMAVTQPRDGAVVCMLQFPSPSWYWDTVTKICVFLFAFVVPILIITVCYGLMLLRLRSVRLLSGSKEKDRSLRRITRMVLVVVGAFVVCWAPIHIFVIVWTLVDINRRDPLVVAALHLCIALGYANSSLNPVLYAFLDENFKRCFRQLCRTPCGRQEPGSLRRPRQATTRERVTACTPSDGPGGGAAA
Assay [4] has as its system Opioid receptors; mu & delta. Kind of assay: Ratio of activity of mu opioid receptor from guinea pig ileum (GPI) to that of delta opioid receptor from mouse vas deferens (MVD). Type of assay: tissue-based.
The target of assay [5] is T1, Mu-type opioid receptor. As to the kind of experiment: Inhibitory concentration required against biological activity of mu opioid receptor from guinea pig ileum (GPI). Format: tissue-based.

Each structure is given as a SMILES string.

T1 sequence (P97266 whole entry): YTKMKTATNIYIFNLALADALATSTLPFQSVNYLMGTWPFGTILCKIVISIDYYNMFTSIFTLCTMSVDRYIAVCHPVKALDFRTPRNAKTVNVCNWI
Sequence of Opioid receptors; mu & delta (Homo sapiens) (P35372 whole entry, looked up): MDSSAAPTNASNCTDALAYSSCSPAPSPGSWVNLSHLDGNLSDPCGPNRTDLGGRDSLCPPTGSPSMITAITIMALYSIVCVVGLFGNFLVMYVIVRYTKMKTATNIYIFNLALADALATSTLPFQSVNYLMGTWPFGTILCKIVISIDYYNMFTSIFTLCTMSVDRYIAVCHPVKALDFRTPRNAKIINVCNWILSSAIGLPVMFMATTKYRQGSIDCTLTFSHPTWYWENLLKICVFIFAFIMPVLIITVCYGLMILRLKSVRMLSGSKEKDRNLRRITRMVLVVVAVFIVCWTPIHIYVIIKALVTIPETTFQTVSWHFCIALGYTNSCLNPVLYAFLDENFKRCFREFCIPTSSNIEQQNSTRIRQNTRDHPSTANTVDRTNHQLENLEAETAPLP
Sequence of Opioid receptors; mu & delta (Homo sapiens) (P41143 whole entry, looked up): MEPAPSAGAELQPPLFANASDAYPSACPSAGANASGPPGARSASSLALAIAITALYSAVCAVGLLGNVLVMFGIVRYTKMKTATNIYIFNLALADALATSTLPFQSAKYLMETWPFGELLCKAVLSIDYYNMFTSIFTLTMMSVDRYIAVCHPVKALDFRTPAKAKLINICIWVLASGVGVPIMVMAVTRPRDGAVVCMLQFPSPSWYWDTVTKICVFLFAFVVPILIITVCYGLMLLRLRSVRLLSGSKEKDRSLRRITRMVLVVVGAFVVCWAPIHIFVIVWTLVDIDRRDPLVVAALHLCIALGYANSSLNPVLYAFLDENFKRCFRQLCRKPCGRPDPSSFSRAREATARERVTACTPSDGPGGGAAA

Turning to `C[C@H](c1ccccc1)[C@H](NC(=O)CNC(=O)[C@@H](C)NC(=O)[C@@H](N)Cc1ccc(O)cc1)C(=O)NNC(=O)[C@@H](NC(=O)CNC(=O)[C@@H](C)NC(=O)[C@@H](N)Cc1ccc(O)cc1)[C@H](C)c1ccccc1` (stereo in doubt), on Mu-type opioid receptor [1], the inhibition constant (Ki) amounted to 1.3 nM. Moreover, the Ratio was found to be 0.012 in assay [2] and 0.12 in assay [4]. Further, the 50% inhibitory concentration (IC50) in assay [3] came out at 180 nM; against Mu-type opioid receptor [5] it was 21 nM.
The like results for `CC(NC(=O)[C@@H](N)Cc1ccc(O)cc1)C(=O)NCC(=O)N[C@H](C(=O)NNC(=O)[C@@H](NC(=O)CNC(=O)C(C)NC(=O)[C@@H](N)Cc1ccc(O)cc1)[C@@H](C)c1ccccc1)[C@@H](C)c1ccccc1` (single isomer, unassigned) were, in that order, 3 nM, 0.27, 0.34, 120 nM and 41 nM.
The like results for `C[C@@H](NC(=O)[C@@H](N)Cc1ccc(O)cc1)C(=O)NCC(=O)N[C@@H](Cc1ccc2ccccc2c1)C(=O)NNC(=O)[C@H](Cc1ccc2ccccc2c1)NC(=O)CNC(=O)[C@@H](C)NC(=O)[C@@H](N)Cc1ccc(O)cc1` were, in that order, 1.7 nM, 0.23, 0.24, 9.3 nM and 2.2 nM.
Taken in the same sequence, the figures for `C[C@@H](NC(=O)[C@@H](N)Cc1ccc(O)cc1)C(=O)NCC(=O)N[C@@H](Cc1c(F)c(F)c(F)c(F)c1F)C(=O)NNC(=O)[C@H](Cc1c(F)c(F)c(F)c(F)c1F)NC(=O)CNC(=O)[C@@H](C)NC(=O)[C@@H](N)Cc1ccc(O)cc1` were 0.91 nM, 0.12, 0.36, 25 nM and 8.9 nM.
`C[C@@H](NC(=O)[C@@H](N)Cc1ccc(O)cc1)C(=O)NCC(=O)N[C@@H](Cc1cccc2ccccc12)C(=O)NNC(=O)[C@H](Cc1cccc2ccccc12)NC(=O)CNC(=O)[C@@H](C)NC(=O)[C@@H](N)Cc1ccc(O)cc1` displayed an inhibitory constant (Ki) on Mu-type opioid receptor [1] of 0.79 nM. Moreover, the Ratio in assay [2] is 0.12; in assay [4], 0.1. Further, the IC50 is 17 nM in assay [3] and 1.7 nM on Mu-type opioid receptor [5].

The term Ki denotes a dissociation constant, usually derived from enzyme kinetics or from competition with a known ligand. The term IC50 denotes the concentration that gives 50% inhibition.
